From patent publication US10166225B2, “Method for treating osteoporosis” (Exelixis, Inc., priority 2011, dated 2019)

Key:
[1] = women, subcutaneous denosumab 60 mg every 6 months; one month after injection; cited from earlier work
[2] = postmenopausal women, one subcutaneous injection, dose-dependent, for as long as 6 months; cited from earlier work
human osteoclasts = assay: Osteoclast activity assay (resorption index CTX/TRACP 5b); format: cell-based; conditions: reference inhibitor, 1_M
Method: In the second part, the culture medium of human osteoclasts was replaced by new medium at day 7, and the formed mature osteoclasts were cultured for an additional 3 days, allowing them to resorb bone. Compound 1 was added into the culture medium at day 7. […] C-terminal cross-linked telopeptides of type I collagen (CTX) were measured in the culture medium collected at day 10 to quantitate bone resorption during days 7-10. […] was measured at day 7 to quantitate osteoclast number before Compound 1 was added. The CTX values were divided by the […] values, resulting as a resorption index that indicates mean osteoclast activity. […] The objective of this study was to investigate the effects of Compound 1 selected by the Sponsor on differentiation and activity of human osteoclasts and mouse osteoblasts in vitro. The effects on osteoclasts were studied using a model where bone marrow-derived human osteoclast precursor cells are cultured on bovine bone slices for 7 days in conditions favouring osteoclast differentiation, and allowed to differentiate into bone-resorbing osteoclasts. After completion of osteoclast differentiation at day 7, the culture medium was removed and new culture medium favouring osteoclast activity was added into the wells. The mature osteoclasts were then cultured for an additional 3 days, allowing them to resorb bone. In the osteoclast differentiation assay, the test compounds and a reference inhibitor osteoprotegerin (OPG) were added into cultures at day 0. In the osteoclast activity assay, the test compounds and a reference inhibitor E64 were added into cultures at day 7. Seven concentrations in 8 replicates were tested in both assays. Tartrate-resistant acid phosphatase 5b activity ([…]) was measured from the culture medium collected at day 7 as an index of the number of osteoclasts formed in each well during the differentiation period. C-terminal cross-linked telopeptides of type I collagen (CTX) was measured from the culture medium collected at day 10 to quantitate bone resorption during days 7-10. A human osteoclast culture system was developed for use in this study where CD34+ osteoclast precursor cells derived from human bone marrow (Poietics® Human Osteoclast Precursors, Lonza, Walkersville, USA) are cultured on bovine bone slices in the presence of appropriate growth factors, including M-CSF and RANK-ligand ([…] et al. 2009). The cells are first allowed to differentiate into mature bone-resorbing osteoclasts, and the formed osteoclasts are then allowed to resorb bone. The test and reference compounds are added into the cell cultures at the beginning of the differentiation and/or the resorption period, and their effects on the differentiation and/or resorbing activity of osteoclasts are determined. Secreted […] is determined from the culture medium after the differentiation period using a commercially available method (BoneTRAPÒ, IDS Ltd, Boldon, UK). Secreted […] describes accurately the number of osteoclasts formed in each well during the differentiation period. CTX is determined from the culture medium after the resorption period using a commercially available method (CrossLapsÒ for cultures, IDS Ltd, Boldon, UK). CTX describes accurately the amount of bone collagen degradation products released into the culture medium in each well during the resorption period. […] In this study, human bone marrow-derived CD34+ stem cells (10000 cells/well) were suspended in culture medium and allowed to attach to bovine bone slices in 96-well tissue culture plates. The culture medium (containing 10% FBS, OCP BulletKit® Lonza, Walkersville, USA) was supplemented with appropriate amounts of important growth factors favoring osteoclast differentiation and activity, including M-CSF (33 ng/ml, OCP BulletKit® Lonza, Walkersville, USA) and RANK-ligand (66 ng/ml, OCP BulletKit® Lonza, Walkersville, USA) in 200 μl of medium. The cells were incubated in a CO2 incubator in humidified atmosphere of 95% air and 5% carbon dioxide at 37° C. […]

Row | Compound | serum CTx levels [1] | suppression of urinary NTx [2] | effect on osteoclast activity (human osteoclasts)
1 | denosumab: subcutaneous denosumab (60 mg) in the FREEDOM osteoporosis trial | decreased to levels below the premenopausal reference interval | up to 81% | 
2 | CC(C)C[C@H](NC(=O)[C@H]1O[C@@H]1C(=O)O)C(=O)NCCCCN=C(N)N [Compound E64, reference compound] |  |  | inhibited significantly
